# Structures can show the parent of a compound that is named as a salt.
# Experiments:
# [1] = Pharmacokinetic properties of test compound in mice (oral); type: in vivo, C57BL male mice; details: mouse; for oral plasma systemic exposure (AUC0-inf), in words / pharmacokinetic properties in rodent mice, in words: oral
# Source text: In this study, C57BL male mice were selected as the test animals, and the LC/MS/MS method was used to quantitatively determine the drug concentration in the plasma of the test compound and the reference compound administered orally to evaluate the pharmacokinetic profile of the test compound in mice.
# […] (C57) mice (male, 20-30 g, 7-10 weeks old, from Beijing Vital River or Shanghai SLAC).
# A clear solution or suspension of the test compound was administrated to C57 mice (fasted overnight) by oral gavage. Blood was collected from jugular vein at pre-dose and 0.5, 1, 2, 4, 6, 8, 24 hours post-dose, the collected blood samples were placed in an anticoagulant tube (Jiangsu Kangjian Medical Co., Ltd.) supplemented with EDTA-K2, and the mixture was vortexed and centrifuged at 13000 rpm for 10 minutes. The LC-MS/MS method was used to determine the plasma concentration, and the relevant pharmacokinetic parameters were calculated using the non-compartmental model linear logarithmic trapezoidal method by WinNonlin™ Version 6.3 (Pharsight, Mountain View, Calif.).
# DOHH2 = assay: Anti-proliferative effect in lymphoma cell line DOHH2 (CellTiter-Glo); type: cell-based; details: Homo sapiens, DOHH-2, 96 h; incubate with the compound for 4 days
# Description: (§1) Experiment object: In this experiment, the inhibitory effects of the test compounds on cell proliferation in the diffuse large B-cell lymphoma cell lines OCI-LY10 and DOHH2, and the mantle cell lymphoma cell line Mino were tested. The tumor cell lines were cultured in an incubator at 37° C. and 5% CO2 under the above-mentioned culture conditions. The cells were passaged regularly, and cells in the logarithmic growth phase were taken for plating. (3). 90 μL of cell suspension was added to each well of the culture plate as shown in the table above, and cell-free culture solution was added to the blank control well. (4). The culture plates were incubated overnight at 37° C., 5% CO2, and 100% relative humidity in an incubator. A 400× compound working solution was prepared. The compound was gradually diluted with DMSO from the highest concentration to the lowest concentration. […] The following steps followed the instructions of Promega CellTiter-Glo Luminescence Cell Viability Detection Kit (Promega-G7573). […] The luminous signal was detected on the 2104 EnVision plate reader. […] The inhibition rate of different concentrations of the compound was calculated in Excel, and then GraphPad Prism software was used to draw the inhibition curve and calculate the relevant parameters, including the minimum inhibition rate, the maximum inhibition rate and IC50.
# [2] = system: human lymphoma OCI-LY10 cells; assay: In vivo pharmacodynamic study in subcutaneous xenograft tumor CB-17 SCID model of human lymphoma OCI-LY10 cells; parameters: species or system CB-17 SCID mouse
# Description: Cells culture: Human lymphoma OCI-LY10 cells (National Cancer Institute) were cultured in a monolayer method in vitro (culture conditions: RPMI-1640 medium with 10% fetal bovine serum, 100 U/mL penicillin and 100 μg/mL streptomycin; 37° C., 5% CO2 incubator). Pancreatin-EDTA was used twice a week for conventional digestion and passage. When a cell saturation of 80%-90% and the required cell number were achieved, the cells were collected, counted and seeded. Animal: CB-17 SCID mouse, female, 6-8 weeks old, weighing 18-22 grams. 0.2 mL (10×10^6 cells) of OCI-LY10 cells (with matrigel in a volume ratio of 1:1) were subcutaneously inoculated on the right back of each mouse. The grouping and administration were started when the average tumor volume reached about 139 mm^3. One dosing cycle was seven days, and the compound was administered once a day with an interval of 24 hours. The test compound was administered orally for a total of four cycles. The dose of the test compound WX001 was 60 mg/kg. The tumor volume was measured twice a week with a two-dimensional caliper, expressed in cubic millimeters, and calculated by the following formula: V=0.5a×b^2, in which a and b were the long diameter and short diameter of the tumor, respectively. The anti-tumor efficacy was determined by dividing the average increase of tumor volume of animals treated with the compound by that of untreated animals. TGI: Tumor Growth Inhibition. TGI (%)=[1−(average tumor volume at the end of administration in a treatment group−average tumor volume at the beginning of administration in this treatment group)/(average tumor volume at the end of administration in the solvent control group−average tumor volume at the beginning of administration in the solvent control group)]×100%.
# Mino = assay: Anti-proliferative effect in lymphoma cell line Mino (CellTiter-Glo); type: cell-based; details: Homo sapiens, 96 h, incubate with the compound for 4 days
# Description: as §1
# OCI-LY10 = assay: Anti-proliferative effect in lymphoma cell line OCI-LY10 (CellTiter-Glo); type: cell-based; details: Homo sapiens, OCI-Ly10, 120 h; incubate with the compound for 5 days
# Description: Experiment object: In this experiment, the inhibitory effects of the test compounds on cell proliferation in the diffuse large B-cell lymphoma cell lines OCI-LY10 and DOHH2, and the mantle cell lymphoma cell line Mino were tested.
# The tumor cell lines were cultured in an incubator at 37° C. and 5% CO2 under the above-mentioned culture conditions. The cells were passaged regularly, and cells in the logarithmic growth phase were taken for plating.
# (3). 90 μL of cell suspension was added to each well of the culture plate as shown in the table above, and cell-free culture solution was added to the blank control well.
# (4). The culture plates were incubated overnight at 37° C., 5% CO2, and 100% relative humidity in an incubator.
# A 400× compound working solution was prepared. The compound was gradually diluted with DMSO from the highest concentration to the lowest concentration. The compound was freshly formulated when use every time.
# (1). Formulation of 10× compound working solution: 76 μL of cell culture solution was added to a 96-well plate with a V-shaped bottom, and 4 μL of the compound from a 200× compound solution plate was pipetted and added to the cell culture solution in the 96-well plate. 4 μL of DMSO was added to the vehicle control and blank control. After adding the compound or DMSO, a multi-channel pipette was used for mixing well. 78 μL of cell culture solution was added to a 96-well plate with a V-shaped bottom, and 2 μL of the compound from the 400× compound storage solution was pipetted and added to the cell culture solution in the 96-well plate. 2 μL of DMSO was added to the vehicle control and blank control. After adding the compound or DMSO, a multi-channel pipette was used for mixing well.
# (2). Dosing: 10 μL of the 10× compound working solution was taken and added to the cell culture plate. 10 μL mixture of DMSO and cell culture solution was added to the vehicle control and blank control.
# (3). The 96-well cell plates were placed back into the incubator to culture OCI-LY10 (5 times dilution, incubate with the compound for 5 days), DOHH2 (3 times dilution, incubate with the compound for 4 days), Mino (3 times dilution, incubate with the compound for 4 days).
# The following steps followed the instructions of Promega CellTiter-Glo Luminescence Cell Viability Detection Kit (Promega-G7573).
# (6). 50 μL (equal to half the volume of cell culture solution in each well) of CellTiter-Glo working solution was added into each well. The cell plates were wrapped with aluminum foil to protect the cell plate from light.
# (9). The luminous signal was detected on the 2104 EnVision plate reader.
# The following formula was used to calculate the inhibition rate (IR) of the test compound: IR (%)=(RLU of vehicle control−RLU of compound)/(RLU vehicle control−RLU blank control)*100%. […]
# [3] = 60 mg/kg oral once a day, Day 27
Compound,"oral plasma systemic exposure (AUC0-inf), in words [1]","pharmacokinetic properties in rodent mice, in words [1]","Area under the concentration-time curve (0-inf) ([1]; oral 10 mg/kg, plasma)",IC50 (OCI-LY10),also measured
CN(C)CCOc1ccc2cc3occ(C4CCC(=O)NC4=O)c3cc2c1 (stereo not drawn) [Hydrochloride salt of WX022],higher,better pharmacokinetic properties,7.42 µM·h,–,–
O=C1CCC(c2coc3cc4ccccc4cc23)C(=O)N1 (stereo not drawn) [WX001],–,–,–,28 nM,"IC50 (DOHH2): 63 nM; Tumor volume (Day 0) ([2]; 60 mg/kg oral once a day, Day 0, start of administration): 139 mm^3; TGI (Day 27) [2, 3]: 105.5%; Tumor volume (Day 27) [2, 3]: 87 mm^3; tumor-shrinking effect, in words ([2]; human lymphoma OCI-LY10 model): significant tumor-shrinking effect; IC50 (Mino): 72 nM"
O=C1CCC(c2coc3cc4c(cc23)OCO4)C(=O)N1 (stereo not drawn) [WX002],–,–,–,86 nM,–
O=C1CCC(c2coc3cc4c(cc23)OCCN4)C(=O)N1 (stereo not drawn) [WX003],–,–,–,83 nM,–
Cc1nc2cc3occ(C4CCC(=O)NC4=O)c3cc2o1 (stereo not drawn) [WX005],–,–,–,6 nM,–
O=C1CCC(c2coc3cc4ccc(OCCN5CCOCC5)cc4cc23)C(=O)N1 (stereo not drawn) [WX015],higher,better pharmacokinetic properties,13.29 µM·h,–,"Peak concentration ([1]; oral 10 mg/kg, plasma): 5.14 µM; Time to peak ([1]; oral 10 mg/kg, plasma): 0.50 h"

# From patent US11319330B2, “Tricyclic furan-substituted piperidinedione compound” (MEDSHINE DISCOVERY INC., priority 2018, dated 2022)
